Source: patent US20180092908A1, “SMALL MOLECULE OXIDIZERS OF PDI AND THEIR USE” (THE TRUSTEES OF COLUMBIA UNIVERSITY IN THE CITY OF NEW YORK, priority 2015, published 2018)
≈ marks a conversion by molar mass, not a printed value. Where two headings read alike, the source gives them in different places.

Assays:
PC12 mHTT^Q103 cells = experiment: Rescue of PC12 cells from mHTT^Q103 induced cell death (Alamar blue viability); type: cell-based; conditions: Rattus norvegicus, PC-12; Table 5; read-out: Cell Viability Assay EC50
Text: PC12 mHTT^Q103 cells were a gift from Erik S. Schweitzer (UCLA School of Medicine, Los Angeles, Calif.). These cells are stably transfected with the first exon of human HTT gene containing the pathogenic 103 CAG/CAA repeat expansion, under the control of the ecdysteroid promoter (Aiken et al., 2004). The plasmid also contains a Bombyx mori ecdysone receptor gene fused at N-terminal with VP16 transactivation domain (Suhr et al., 1998; Vilaboa et al., 2011). Addition of the ecdysone analog, tebufenozide, to the cell culture medium is used to initiate the transcription of mutant HTT (Aiken et al., 2004).
PC12 mHTT^Q103 cells were cultured in DMEM containing 4.5 g/I glucose, 25 mM HEPES, sodium pyruvate, and no L-glutamine (Mediatech, cat. no. 15-018-CV), supplemented with 10% (v/v) Cosmic Calf serum, 2 mM L-glutamine, 100 units/mL of penicillin-streptomycin, and 0.5 mg/ml active geneticin. Cells were grown at 37° C., 9.5% CO2, and the medium was replaced with fresh medium every 2-3 days. To induce mHTT^Q103 expression for experiments, tebufenozide, a gift from Lynne Moore and Fred H. Gage (The Salk Institute for Biological Studies, La Jolla, Calif.), was added to the medium at 200 nM final concentration from 1 mM stock in 85% ethanol.
LOC mother plates with compounds at 4 mg/ml were thawed and spun down (1000 rpm, 20° C., 1 min) prior to use. Biomek FX (Beckman Coulter) robotic liquid dispenser was used to handle all liquid transferring and mixing. […] Two fold serial dilution was performed across five daughter plates by transferring 50 μl of compounds (at […]) from the D1 plate into 50 μl of PC12 medium in daughter plate D2, mixing, and then repeating the process for the remaining three plates. Daughter plate D1 with compounds at […], daughter plate D3 with compounds at 20 μl/ml and daughter plate D5 with compounds at 5 μl/ml were then used for the screen. Assay plates were set up by seeding tebufenozide-induced PC12 mHTT^Q103 cells into 384-well black, clear-bottom plates (Corning Inc. cat. no. 3712) at a density of 7,500 cells per well in 57 μl PC12 medium without geneticin. Three microliters of compound from the daughter plates (D1, D3, and D5) were added to the assay plates for a final compound concentration of 4 μl/ml, 1 μl/ml, and 0.25 μl/ml. Four wells containing uninduced PC12 mHTT^Q103 cells and four wells containing medium only, were also included on each plate as controls. The assay plates were incubated at 37° C., 9.5% CO2 for 48 hours. Twenty microliters of 40% Alamar blue (Life Technologies cat. no. DAL1100) solution in PC12 medium was added to each well (1:10 final dilution) and the plates were incubated for an additional 12-24 hours at 37° C., 9.5% CO2. Alamar blue fluorescence was read on a fluorescence plate reader (PerkinElmer Victor3) with 530 nm excitation filter and 590 nm emission filter. Each compound concentration was tested in triplicate.
The follow-up testing of primary screen hits was performed in a similar way. Fresh powder stocks of primary hits were re-ordered from vendors, dissolved in DMSO and tested in a two-fold serial dilution across 10 wells in both tebufenozide-induced and uninduced PC12 mHTT^Q103 cells. Dose-response curves were plotted as mean±SD and fit to either four-parameter sigmoidal (for uninduced cells) or bell-shaped (induced) function using Prism (GraphPad Software).
A cascade of two assays was used, involving both a phenotypic high-throughput screening (HTS) assay and an in vitro PDI reductase assay, to identify neuroprotective PDI-inhibiting compounds. […] Alamar blue was used as a fluorescent readout for viability after 48 hours of compound treatment and mHTT^Q103 induction. […] All the candidate hit compounds were re-tested in a two-fold dilution series.

[1] = target: T1, recombinant catalytic a domain of human PDI A1 (PDIa) (Homo sapiens, UniProt P07237); experiment: Insulin aggregation assay (PDIa reductase activity); type: biochemical; conditions: Table 5
T1 construct: made in house; host or cells: Escherichia coli BL21-Gold (DE3)
Text: In this insulin aggregation assay (Xu et al., 2012; Jasuja et al., 2012; Khan et al., 2011; Smith et al., 2004), PDIa reduced the two disulfide bonds between the α- and β-chains of insulin, causing the β-chain to aggregate and precipitate, resulting in an increase in absorbance at 650 nm.
To investigate the mode of binding further and to determine whether the binding was reversible or irreversible, the recovery of enzymatic activity of PDIa after dilution of pre-formed concentrated PDIa-LOC14 complexes was analyzed. LOC14 (750 μM) was incubated with a concentrated solution of PDIa (500 μM). The mixture was then diluted 100-fold and PDI's enzymatic activity was measured in the insulin reduction assay. As a control, the same procedure was also performed on the sample containing an irreversible inhibitor, 16F16 (16F16 at 750 μM and PDIa at 500 μM). […] This illustrated that unlike 16F16, LOC14 binding to PDIa is reversible.

[2] = target: T2, human catalytic PDI A1 a domain (PDIa) (Homo sapiens, UniProt P07237); experiment: Isothermal titration calorimetry (ITC) binding to PDIa; conditions: PDIa
T2 construct: made in house; host or cells: Escherichia coli BL21-Gold (DE3)
Description: All ITC experiments were carried out at 25° C. on MicoCal Auto-ITC200 system (GE Healthcare). Reduced PDIa was dialyzed into ITC buffer (20 mM sodium phosphate buffer pH 7.8) and loaded into a sample cell at 40 μM concentration. The compound solution was loaded into a syringe at 400 μM in the same ITC buffer with a final DMSO concentration at 0.4% (v/v). ITC titration experiments were carried out at 25° C. with 19 injections, 2 μl per injection, and 180 seconds between each injection. The reference cell power was set to 5 μcal/sec. A control experiment was performed for each compound, where each compound was titrated into buffer to account for heat released due to dilution. This background was subtracted from test data before a final dissociation constant was obtained. Data were analyzed using a one-site binding model in Origin 7.1 software. […] Gibbs free energy, ΔG, was calculated from equation ΔG=ΔH−TΔS. All other parameters, Ka, n, ΔH, ΔS, were determined directly from the titration data.
For ITC experiments with 16F16 pre-treatment, 40 μM PDIa (after dialysis into ITC buffer) was treated with 200 μM 16F16 for 12-15 hours at 4° C. Next day the whole solution was loaded into the sample cell. LOC14 at 400 μM in ITC buffer was loaded into syringe and titrated into PDIa+16F16 loaded cell. For control experiments, ITC buffer with 200 μM 16F16 was used in the cell, while 400 μM LOC14 in ITC buffer was used in the syringe.
The binding mode of LOC14 to PDIa was next investigated using isothermal titration calorimetry (ITC). ITC measures the heat released or absorbed during a biomolecular interaction. It is a direct analytical method for determining the binding and thermodynamic parameters, such as reaction stoichiometry (n), binding constants (Ka and Kd), enthalpy (ΔH), entropy (ΔS), and free energy (ΔG) of an interaction.

Solubility = conditions: DMSO, Table 5
physchem = conditions: organic solvent or mixture
[3] = Table 5, read-out: ITC Assay KD

T1 sequence (P07237 with tags, fused parts or gaps): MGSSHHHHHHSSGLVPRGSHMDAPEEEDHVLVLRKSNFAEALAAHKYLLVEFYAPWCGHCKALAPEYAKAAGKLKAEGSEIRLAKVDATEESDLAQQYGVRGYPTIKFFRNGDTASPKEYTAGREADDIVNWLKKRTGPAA
T2 sequence (P07237 with tags, fused parts or gaps): as above

Structure (SMILES)	Insulin Assay (either active or inactive) [1]	Kd ([2]; Table 4, read-out: ITC KD) [nM]	Kd [2, 3] [nM]	Solubility in DMSO (Solubility) [mM in DMSO]	ITC KD ([2]; Table 4)	ITC Assay KD ([2]; Table 5)	solubility (physchem; DMSO) [mM]	EC50 (PC12 mHTT^Q103 cells) [nM]	solubility (physchem) [mM]
O=c1c2ccccc2sn1CN1CCCCC1 [LC-1]	Active	107	107	100	–	–	–	459	–
CN1CCN(Cn2sc3ccccc3c2=O)CC1 [LC-2]	Active	134	91.7	100	–	–	–	415	–
O=c1c2ccccc2sn1CN1CCSCC1 [LC-3]	Active	91.7	91.7	100	–	–	–	463	–
O=c1c2ccccc2sn1CN1CCC(CO)CC1 [LC-4]	Active	265	265	100	–	–	–	343	–
O=C(Nc1ccccc1)n1sc2ccccc2c1=O [LC-6, 3-oxo-N-phenylbenzo[d]isothiazole-2(3H)-carboxamide]	not active	–	–	–	KD = not active	KD = N/A irreversible or not active	50 (≈ 13500 µg/mL)	476	–
O=c1c2ccccc2sn1CN1CCC(O)CC1 [LC-7]	Active	216	216	100	–	–	–	441	–
CC(C)(C)OC(=O)N1CCN(Cn2sc3ccccc3c2=O)CC1 [LC-10]	Active	123	123	100	–	–	–	581	–
O=c1c2ccccc2sn1CN1CCN(c2ncccn2)CC1 [LC-12]	Active	140	140	100	–	–	–	416	–
CC(=O)c1ccc(N2CCN(Cn3sc4ccccc4c3=O)CC2)cc1 [LC-13]	Active	190	190	100	–	–	–	514	–
O=C(C1CC1)N1CCN(C(=O)n2sc3ccccc3c2=O)CC1 [LC-14]	not active	–	–	–	–	KD = N/A irreversible or not active	30 (≈ 9940 µg/mL)	> 50000	–
O=C(C1CC1)N1CCN(Cn2sc3ccc(Cl)cc3c2=O)CC1 [LC-15, 5-chloro-2-((4-(cyclopropanecarbonyl)piperazin-1-yl)methyl)benzo[d]isothiazol-3(2H)-one]	Active	114	114	–	–	–	20 (≈ 7040 µg/mL)	467	–
CC(C)(C)OC(=O)N1CCC(COc2nsc3ccccc23)CC1 [LC-16]	not active	–	–	–	–	KD = N/A irreversible or not active	50 (≈ 17400 µg/mL)	> 50000	–
O=C(Nc1ccccc1)c1ccccc1S [LC-19]	not active	–	–	–	–	KD = N/A irreversible or not active	–	–	50 (≈ 11500 µg/mL)
Cc1cc(C)c2c(=O)ssc2n1 [LC-50]	Active	–	–	100	–	–	–	5180	–

Further lines, with some results ahead:

Insulin Assay (either active or inactive) [1]	Kd ([2]; Table 4, read-out: ITC KD) [nM]	Kd [2, 3] [nM]	Solubility in DMSO (Solubility) [mM in DMSO]	ITC KD ([2]; Table 4)	ITC Assay KD ([2]; Table 5)	solubility (physchem; DMSO) [mM]	Structure (SMILES)	EC50 (PC12 mHTT^Q103 cells) [nM]	solubility (physchem) [mM]
Active	–	160	100	–	–	–	O=c1c2ccccc2sn1Cn1sc2ccccc2c1=O [LC-17, 2,2′-methylenebis(benzo[d]isothiazol-3(2H)-one)]	229	–
not active	–	–	–	–	KD = N/A irreversible or not active	30 (≈ 9370 µg/mL)	O=c1c2ccccc2sn1-c1ccc(N2CCOCC2)cc1 [LC-27]	1830	–
Active	–	–	–	–	KD = N/A irreversible or not active	–	O=C(C1CC1)N1CCN(Cn2sc3c(F)cccc3c2=O)CC1 [LC-43]	7410	–
Active	–	–	–	–	KD = N/A irreversible or not active	–	NC(=O)c1cccc(F)c1SSc1c(F)cccc1C(N)=O [LC-44]	7070	–
not active	–	–	–	–	KD = N/A irreversible or not active	50 (≈ 7610 µg/mL)	O=c1[nH]sc2ncccc12 [LC-47]	> 50000	–
Active	–	–	–	–	–	10 (≈ 1940 µg/mL)	Cc1nc2s[nH]c(=O)c2c(C)c1C [LC-51]	2200	–
Active	–	–	–	–	–	10 (≈ 3600 µg/mL)	Cc1nc2sn(CN3CCN(C(=O)C4CC4)CC3)c(=O)c2c(C)c1C [LC-52]	3570	–
Active	–	–	–	–	–	25 (≈ 8660 µg/mL)	Cc1cc(C)c2c(=O)n(CN3CCN(C(=O)C4CC4)CC3)sc2n1 [LC-53]	4200	–
Active	–	–	100	–	–	–	Cc1nnc2sn(C(C)N3CCC(C(=O)C4CC4)CC3)c(=O)c2c1C (stereo not shown) [LC-59]	10600	–
